The values below come from patent US8114991B2, “Amino-1,3,5-triazines N-substituted with chiral bicyclic radicals, process for their preparation, compositions thereof, and their use as herbicides and plant growth regulators” (Bayer Cropscience AG, priority 2003, dated 2012).

The test system of test [1] is harmful plants such as Stellaria media, Lolium multiforum, Amaranthus retroflexus, Sinapis alba, Avena sativa and Setaria viridis. The experiment in a line: Pre-emergence effect on weeds (greenhouse pot test). It counts as in vivo. The settings on record: application rate of 1 kg or less of active ingredient per hectare; scored after 3 to 4 weeks by comparison with untreated controls. The source says:
Seeds or rhizome pieces of monocotyledonous and dicotyledonous weed plants were placed in sandy loam in plastic pots and covered with soil. The compounds according to the invention, which were formulated in the form of wettable powders or emulsion concentrates, were then applied to the surface of the soil cover as aqueous suspension or emulsion at various dosages with an application rate of 600 to 800 l of water per ha (converted).
After the treatment, the pots were placed into a greenhouse and kept under good growth conditions for the weeds. The plant or emergence damage was scored visually after the test plants have emerged after an experimental time of 3 to 4 weeks by comparison with untreated controls.

Test [2] deals with harmful plants such as Sinapis alba, Echinochloa crus-galli, Lolium multiflorum, Stellaria media, Cyperus iria, Amaranthus retroflexus, Setaria viridis, Avena …. The experiment in a line: Post-emergence effect on weeds (greenhouse pot test). Format: in vivo. The settings on record: application rate of 2 kg or less of active ingredient per hectare; treated in the three-leaf stage; scored after approx. 3 to 4 weeks by comparison with untreated controls.

Turning to `C[C@H](F)c1nc(N)nc(N[C@@H]2CCc3ccccc32)n1` [Compound 3.1], the “pre-emergence control of harmful plants (plant or emergence damage scored visually)” value (from here on “pre-emergence control of harmful plants”) in test [1] is reported as “very good pre-emergence control”. Moreover, the “herbicidal post-emergence activity against harmful plants (scored visually)” value (“herbicidal post-emergence activity” for short) in test [2] is on record as “very good herbicidal post-emergence activity”.
In the same order, the values of `Cc1ccc2c(c1)[C@H](Nc1nc(N)nc([C@H](C)F)n1)CC2` [Compound 3.2] are “very good pre-emergence control” and “very good herbicidal post-emergence activity”.
In the same order, the values of `Cc1cc2c(cc1C)[C@H](Nc1nc(N)nc([C@H](C)F)n1)CC2` [Compound 3.7] are “very good pre-emergence control” and “very good herbicidal post-emergence activity”.
In the same order, the values of `C[C@H](F)c1nc(N)nc(N[C@@H]2CCCc3ccccc32)n1` [Compound 3.11] are “very good pre-emergence control” and “very good herbicidal post-emergence activity”.
As to `Cc1cc(C)c2c(c1)[C@H](Nc1nc(N)nc([C@H](C)F)n1)CCC2` [Compound 3.15], the “pre-emergence control of harmful plants” value in test [1] is “very good pre-emergence control”. In test [2], the “herbicidal post-emergence activity” value is given as “very good herbicidal post-emergence activity”.
On to `C[C@H](F)c1nc(N)nc(N[C@@H]2CCOc3ccccc32)n1` [Compound 3.20], for which the “pre-emergence control of harmful plants” value in test [1] is given as “very good pre-emergence control”. Besides, the “herbicidal post-emergence activity” value in test [2] was “very good herbicidal post-emergence activity”.
In the same order, the values of `C[C@H](Cl)c1nc(N)nc(N[C@@H]2CCc3ccccc32)n1` [Compound 3.24] are “very good pre-emergence control” and “very good herbicidal post-emergence activity”.
On the same counts, the results for `C[C@H](F)c1nc(N)nc(N[C@H]2c3ccccc3C[C@@H]2C)n1` [Compound 4.1] are “very good pre-emergence control” and “very good herbicidal post-emergence activity”.
On the same counts, the results for `Cc1ccc2c(c1)CC(C)C2Nc1nc(N)nc(C(C)F)n1` (centres unmarked) [Compound 4.2] are “very good pre-emergence control” and “very good herbicidal post-emergence activity”.
In the case of `C[C@@H]1Cc2ccccc2[C@@H]1Nc1nc(N)nc([C@@H](C)F)n1` [Compound 5.1], in test [1], the “pre-emergence control of harmful plants” value is “very good pre-emergence control”. In test [2], the “herbicidal post-emergence activity” value was “very good herbicidal post-emergence activity”.
In the same order, the values of `Cc1ccc2c(c1)[C@H](Nc1nc(N)nc([C@@H](C)F)n1)[C@H](C)C2` [Compound 5.2] are “very good pre-emergence control” and “very good herbicidal post-emergence activity”.
In the case of `CC(F)c1nc(N)nc(NC2c3ccccc3CC2C)n1` (centres unmarked) [Compound 6.1], in test [1], the “pre-emergence control of harmful plants” value is recorded as “very good pre-emergence control”. For the same compound, the “herbicidal post-emergence activity” value in test [2] is “very good herbicidal post-emergence activity”.
Turning to `Cc1ccc2c(c1)C(Nc1nc(N)nc(C(C)F)n1)C(C)C2` (centres unmarked) [Compound 6.2], in test [1], the “pre-emergence control of harmful plants” value is “very good pre-emergence control”. Moreover, the “herbicidal post-emergence activity” value in test [2] was “very good herbicidal post-emergence activity”.
In the same order, the values of `Cc1nc(N)nc(N[C@H]2c3ccccc3C[C@@H]2C)n1` [Compound 7.1] are “very good pre-emergence control” and “very good herbicidal post-emergence activity”.
On the same counts, the results for `Cc1ccc2c(c1)[C@H](Nc1nc(C)nc(N)n1)[C@@H](C)C2` [Compound 7.2] are “very good pre-emergence control” and “very good herbicidal post-emergence activity”.
In the same order, the values of `Cc1nc(N)nc(N[C@H]2c3cc(F)ccc3C[C@@H]2C)n1` [Compound 7.3] are “very good pre-emergence control” and “very good herbicidal post-emergence activity”.
Consider `Cc1nc(N)nc(N[C@H]2c3cc(Cl)ccc3C[C@@H]2C)n1` [Compound 7.4], for which the “pre-emergence control of harmful plants” value in test [1] is “very good pre-emergence control”. In addition, the “herbicidal post-emergence activity” value in test [2] is listed as “very good herbicidal post-emergence activity”.
Regarding `Cc1nc(N)nc(N[C@H]2c3ccccc3CC[C@@H]2C)n1` [Compound 7.11], the “pre-emergence control of harmful plants” value in test [1] was “very good pre-emergence control”. For the same compound, in test [2], the “herbicidal post-emergence activity” value was “very good herbicidal post-emergence activity”.
As to `CC(C)c1nc(N)nc(N[C@H]2c3ccccc3C[C@@H]2C)n1` [Compound 7.24], the “pre-emergence control of harmful plants” value in test [1] is recorded as “very good pre-emergence control”. Moreover, the “herbicidal post-emergence activity” value in test [2] was “very good herbicidal post-emergence activity”.
In the same order, the values of `CCCc1nc(N)nc(N[C@H]2c3ccccc3C[C@@H]2C)n1` [Compound 7.47] are “very good pre-emergence control” and “very good herbicidal post-emergence activity”.
On the same counts, the results for `CCCc1nc(N)nc(N[C@H]2c3cc(C)ccc3C[C@@H]2C)n1` [Compound 7.48] are “very good pre-emergence control” and “very good herbicidal post-emergence activity”.
On the same counts, the results for `CCCc1nc(N)nc(N[C@H]2c3ccccc3CC[C@@H]2C)n1` [Compound 7.57] are “very good pre-emergence control” and “very good herbicidal post-emergence activity”.
Take `COCc1nc(N)nc(N[C@H]2c3ccccc3C[C@@H]2C)n1` [Compound 7.70]: the “pre-emergence control of harmful plants” value in test [1] is listed as “very good pre-emergence control”. In test [2], the “herbicidal post-emergence activity” value is recorded as “very good herbicidal post-emergence activity”.
In the same order, the values of `COCc1nc(N)nc(N[C@H]2c3cc(C)ccc3C[C@@H]2C)n1` [Compound 7.72] are “very good pre-emergence control” and “very good herbicidal post-emergence activity”.
In the same order, the values of `CCc1nc(N)nc(N[C@H]2c3ccccc3C[C@@H]2C)n1` [Compound 7.74] are “very good pre-emergence control” and “very good herbicidal post-emergence activity”.
